Earlier results on three compounds are cited in patent US20050124791A1, “Ion channel” (priority 2001, published 2005).

The subject of this data set is adenylate cyclase from the outer segment of the bovine retina. Conditions: membrane-associated and purified soluble enzyme.

For the compound `Nc1nc2c(ncn2[C@@H]2O[C@H](COP(=O)(O)OP(=O)(O)OP(=O)(O)O)[C@@H](O)[C@H]2O)c(=O)[nH]1` [GTP], the “stimulation of the enzyme” value is given as “Neither the membrane-associated nor the purified soluble enzyme can be stimulated”.

`Nc1nc2c(ncn2[C@@H]2O[C@H](COP(=O)(O)OP(=O)(O)OP(O)(O)=S)[C@@H](O)[C@H]2O)c(=O)[nH]1` [GTPyS]: the “stimulation of the enzyme” value is recorded as “Neither the membrane-associated nor the purified soluble enzyme can be stimulated”.

As for GMPPhT, the “stimulation of the enzyme” value is listed as “Neither the membrane-associated nor the purified soluble enzyme can be stimulated”.
